The target in the assay is T1, F508del (Homo sapiens, UniProt P13569, DEL508-508).
T1 construct: expressed in transfected cells
T1 sequence (P13569 with tags, fused parts or gaps DEL508-508): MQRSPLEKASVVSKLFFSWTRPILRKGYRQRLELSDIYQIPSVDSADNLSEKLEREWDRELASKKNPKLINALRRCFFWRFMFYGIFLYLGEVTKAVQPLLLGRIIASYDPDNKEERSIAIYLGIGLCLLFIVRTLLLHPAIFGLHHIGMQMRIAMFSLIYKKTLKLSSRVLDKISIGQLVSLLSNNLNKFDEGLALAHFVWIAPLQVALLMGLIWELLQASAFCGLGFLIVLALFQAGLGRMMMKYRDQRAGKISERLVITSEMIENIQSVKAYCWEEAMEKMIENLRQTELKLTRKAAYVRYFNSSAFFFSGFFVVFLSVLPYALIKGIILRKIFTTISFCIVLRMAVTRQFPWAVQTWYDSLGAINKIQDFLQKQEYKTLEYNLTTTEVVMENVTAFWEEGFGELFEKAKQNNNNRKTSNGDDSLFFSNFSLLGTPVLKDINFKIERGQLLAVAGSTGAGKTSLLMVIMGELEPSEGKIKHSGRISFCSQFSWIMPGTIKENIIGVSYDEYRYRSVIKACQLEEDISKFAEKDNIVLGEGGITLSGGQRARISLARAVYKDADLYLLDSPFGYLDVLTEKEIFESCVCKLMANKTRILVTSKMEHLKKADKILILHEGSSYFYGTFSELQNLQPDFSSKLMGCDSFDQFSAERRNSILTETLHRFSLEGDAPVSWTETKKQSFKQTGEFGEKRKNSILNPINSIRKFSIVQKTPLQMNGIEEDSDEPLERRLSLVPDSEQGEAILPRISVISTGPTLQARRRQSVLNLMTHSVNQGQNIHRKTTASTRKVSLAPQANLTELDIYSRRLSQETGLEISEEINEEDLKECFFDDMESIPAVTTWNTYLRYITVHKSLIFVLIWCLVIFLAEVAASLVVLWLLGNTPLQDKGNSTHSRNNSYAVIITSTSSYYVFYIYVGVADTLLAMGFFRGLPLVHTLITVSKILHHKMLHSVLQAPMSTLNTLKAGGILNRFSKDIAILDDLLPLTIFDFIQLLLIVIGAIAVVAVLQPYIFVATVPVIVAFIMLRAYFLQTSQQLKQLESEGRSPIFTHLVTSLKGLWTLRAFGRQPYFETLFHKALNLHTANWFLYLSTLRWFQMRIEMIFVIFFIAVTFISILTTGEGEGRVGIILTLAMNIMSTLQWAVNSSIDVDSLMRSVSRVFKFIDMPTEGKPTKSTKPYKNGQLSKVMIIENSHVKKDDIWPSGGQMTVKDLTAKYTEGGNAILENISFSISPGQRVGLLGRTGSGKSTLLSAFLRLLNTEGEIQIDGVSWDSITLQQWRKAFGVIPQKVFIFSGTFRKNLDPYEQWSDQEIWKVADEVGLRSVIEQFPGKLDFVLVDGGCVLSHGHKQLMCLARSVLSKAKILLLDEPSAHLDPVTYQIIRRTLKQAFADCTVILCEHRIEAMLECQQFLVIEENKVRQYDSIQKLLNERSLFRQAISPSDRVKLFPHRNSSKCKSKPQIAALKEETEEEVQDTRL
Description: Protocol 1: membrane potential optical assay (FLIPR III, voltage sensing dye), identification of potentiator compounds. The format is cell-based. The note with it: Table 3, compounds of Table 1. The method in brief:
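NIH 3T3 fibroblasts stably expressing F508del were cultured at 27° C for 24 hrs for temperature correction, then treated with compounds or DMSO and loaded with a voltage-sensing redistribution dye. Forskolin added with a Cl⁻ gradient activated the channel; membrane-potential fluorescence on FLIPR III reported increased gating.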
In the case of `CCOC1CCN(c2nc(C(C)(C)C)ccc2C(=O)NS(=O)(=O)c2cccc(N)n2)CC1` [Compound 1200, N-[(6-amino-2-pyridyl)sulfonyl]-6-tert-butyl-2-(4-ethoxy-1-piperidyl)pyridine-3-carboxamide], the EC30 result is “++ (“++” means between 3 uM and 10 uM)”. The result for `Cc1cc(C)c(Oc2nc(C3=CCOCC3)ccc2C(=O)NS(=O)(=O)c2cccc(N)n2)c(C)c1` [Compound 976, N-[(6-amino-2-pyridyl)sulfonyl]-6-(3,6-dihydro-2H-pyran-4-yl)-2-(2,4,6-trimethylphenoxy)pyridine-3-carboxamide] reads “++ (“++” means between 3 uM and 10 uM)”; that for `CC1CCN(c2nc(C(C)(C)C)ccc2C(=O)NS(=O)(=O)c2ccc(N)cc2)CC1` [Compound 1037, N-(4-aminophenyl)sulfonyl-6-tert-butyl-2-(4-methyl-1-piperidyl)pyridine-3-carboxamide], “++ (“++” means between 3 uM and 10 uM)”. For `Cc1cc(C)c(Oc2nc(C)ccc2C(=O)NS(=O)(=O)c2cccc(NCCCN)n2)c(C)c1` [Compound 982, N-[[6-(3-aminopropylamino)-2-pyridyl]sulfonyl]-6-methyl-2-(2,4,6-trimethylphenoxy)pyridine-3-carboxamide] the value was “++ (“++” means between 3 uM and 10 uM)”. Turning to `CC(C)COc1cc(F)cc(-c2ccc(C(=O)NS(=O)(=O)N3CCCC(O)C3)c(N3C[C@@H](C)CC3(C)C)n2)c1` (stereo partly drawn) [Compound 1608, 6-(3-fluoro-5-isobutoxy-phenyl)-N-[(3-hydroxy-1-piperidyl)sulfonyl]-2-[(4S)-2,2,4-trimethylpyrrolidin-1-yl]pyridine-3-carboxamide], the EC30 result is “+++ (“+++” means <3 uM)”. Turning to `COc1ccc(-c2ccc(C(=O)NS(=O)(=O)c3ccc[nH]c3=O)c(N3C[C@@H](C)CC3(C)C)n2)c(F)c1` [Compound 1858, 6-(2-fluoro-4-methoxy-phenyl)-N-[(2-oxo-1H-pyridin-3-yl)sulfonyl]-2-[(4S)-2,2,4-trimethylpyrrolidin-1-yl]pyridine-3-carboxamide], the EC30 result is “++ (“++” means between 3 uM and 10 uM)”.

Regarding `CC(C)COc1cc(F)cc(-c2ccc(C(=O)NS(=O)(=O)c3cccc(=O)[nH]3)c(N3CC(C)CC3(C)C)n2)c1` (stereo not shown) [Compound 1308, 6-(3-fluoro-5-isobutoxy-phenyl)-N-[(6-oxo-1H-pyridin-2-yl)sulfonyl]-2-(2,2,4-trimethylpyrrolidin-1-yl)pyridine-3-carboxamide], the EC30 result is reported as “+++ (“+++” means <3 uM)”. For `COc1ccccc1COc1cccc(S(=O)(=O)NC(=O)c2cccnc2N2CC(C)CC2(C)C)n1` (stereo not shown) [Compound 1965, N-[[6-[(2-methoxyphenyl)methoxy]-2-pyridyl]sulfonyl]-2-(2,2,4-trimethylpyrrolidin-1-yl)pyridine-3-carboxamide] the value was “+++ (“+++” means <3 uM)”.

On to `Cc1cc(C)c(Oc2nc(-c3ccnn3C)ccc2C(=O)NS(=O)(=O)c2cccc(N)n2)c(C)c1` [Compound 1057, N-[(6-amino-2-pyridyl)sulfonyl]-6-(2-methylpyrazol-3-yl)-2-(2,4,6-trimethylphenoxy)pyridine-3-carboxamide], for which the EC30 result is listed as “+ (“+” means greater than 10 uM)”. The result for `Cc1cc(C#N)cc(C)c1Oc1nc(C(C)(C)C)ccc1C(=O)NS(=O)(=O)c1cccc(N)n1` [Compound 1089, N-[(6-amino-2-pyridyl)sulfonyl]-6-tert-butyl-2-(4-cyano-2,6-dimethyl-phenoxy)pyridine-3-carboxamide] reads “+++ (“+++” means <3 uM)”. For `CC(C)Oc1ccc(-c2ccc(C(=O)NS(=O)(=O)c3cccc(N)n3)c(N3CCCCC3C)n2)cn1` (stereo not shown) [Compound 1182, N-[(6-amino-2-pyridyl)sulfonyl]-6-(6-isopropoxy-3-pyridyl)-2-(2-methyl-1-piperidyl)pyridine-3-carboxamide] the value was “++ (“++” means between 3 uM and 10 uM)”.

In the case of `C[C@@H]1CN(c2nc(C3=CC(C)(C)CCC3=O)ccc2C(=O)NS(=O)(=O)c2cccc(N)n2)C(C)(C)C1` [Compound 1462, N-[(6-amino-2-pyridyl)sulfonyl]-6-(3,3-dimethyl-6-oxo-cyclohexen-1-yl)-2-[(4S)-2,2,4-trimethylpyrrolidin-1-yl]pyridine-3-carboxamide], the EC30 result is listed as “+++ (“+++” means <3 uM)”. `CCOc1cccc2c1CN(Cc1c(C)cc(C)cc1C)C2(C)C(=O)NS(=O)(=O)c1cccc(F)c1OC` (stereo not shown) [Compound 1403, 4-ethoxy-N-(3-fluoro-2-methoxy-phenyl)sulfonyl-1-methyl-2-[(2,4,6-trimethylphenyl)methyl]isoindoline-1-carboxamide]: the EC30 entry is listed as “+++ (“+++” means <3 uM)”. The result for `COc1cc(OC)cc(-c2ccc(C(=O)NS(=O)(=O)c3cccc(N)n3)c(N3C[C@@H](C)CC3(C)C)n2)c1` [Compound 1471, N-[(6-amino-2-pyridyl)sulfonyl]-6-(3,5-dimethoxyphenyl)-2-[(4S)-2,2,4-trimethylpyrrolidin-1-yl]pyridine-3-carboxamide] reads “+++ (“+++” means <3 uM)”; that for `C[C@@H]1CN(c2nc(-c3cccc(OC(F)(F)F)c3)ccc2C(=O)NS(=O)(=O)c2ccc[nH]c2=O)C(C)(C)C1` [Compound 1934, N-[(2-oxo-1H-pyridin-3-yl)sulfonyl]-6-[3-(trifluoromethoxy)phenyl]-2-[(4S)-2,2,4-trimethylpyrrolidin-1-yl]pyridine-3-carboxamide], “+++ (“+++” means <3 uM)”.

As to `CCOc1cc(F)cc(-c2ccc(C(=O)NS(=O)(=O)c3ccc[nH]c3=O)c(Oc3c(C)cc(C)cc3C)n2)c1` [Compound 835, 6-(3-ethoxy-5-fluoro-phenyl)-N-[(2-oxo-1H-pyridin-3-yl)sulfonyl]-2-(2,4,6-trimethylphenoxy)pyridine-3-carboxamide], the EC30 result is “++ (“++” means between 3 uM and 10 uM)”. For the molecule `Cc1cc(OC(C)C)cc(-c2cnc(N3CC(C)CC3(C)C)c(C(=O)NS(=O)(=O)c3cccc(N)n3)c2)c1` (stereo not shown) [Compound 1889, N-[(6-amino-2-pyridyl)sulfonyl]-5-(3-isopropoxy-5-methyl-phenyl)-2-(2,2,4-trimethylpyrrolidin-1-yl)pyridine-3-carboxamide], the EC30 entry is listed as “+++ (“+++” means <3 uM)”.

`CC(C)COc1cc(F)cc(-c2ccc(C(=O)NS(=O)(=O)c3cccc(N)n3)c(N3CC[C@H](C)[C@H](C)C3)n2)c1` [Compound 1724]: the EC30 result was “+++ (“+++” means <3 uM)”. In the case of `COc1cccc(OC)c1-c1ccc(C(=O)NS(=O)(=O)c2cccnc2N)c(N2C[C@@H](C)CC2(C)C)n1` [Compound 1994, N-[(2-amino-3-pyridyl)sulfonyl]-6-(2,6-dimethoxyphenyl)-2-[(4S)-2,2,4-trimethylpyrrolidin-1-yl]pyridine-3-carboxamide], the EC30 result was “+++ (“+++” means <3 uM)”. For `CCOc1ccc(-c2ccc(C(=O)NS(=O)(=O)c3cccc(N)n3)c(N3CCC(C)CC3)n2)cc1` [Compound 910, N-[(6-amino-2-pyridyl)sulfonyl]-6-(4-ethoxyphenyl)-2-(4-methyl-1-piperidyl)pyridine-3-carboxamide] the value was “+++ (“+++” means <3 uM)”; for `CO[C@@H]1CCN(S(=O)(=O)NC(=O)c2ccc(-c3cc(F)cc(OCC(C)C)c3)nc2N2C[C@@H](C)CC2(C)C)C1` [Compound 1893, 6-(3-fluoro-5-isobutoxy-phenyl)-N-[(3R)-3-methoxypyrrolidin-1-yl]sulfonyl-2-[(4S)-2,2,4-trimethylpyrrolidin-1-yl]pyridine-3-carboxamide], “+++ (“+++” means <3 uM)”; for `C[C@@H]1CN(c2nc(C3=CCCN(S(=O)(=O)N4CCCCC4)C3)ccc2C(=O)NS(=O)(=O)c2cccc(N)n2)C(C)(C)C1` [Compound 1942, N-[(6-amino-2-pyridyl)sulfonyl]-6-[1-(1-piperidylsulfonyl)-3,6-dihydro-2H-pyridin-5-yl]-2-[(4S)-2,2,4-trimethylpyrrolidin-1-yl]pyridine-3-carboxamide], “++ (“++” means between 3 uM and 10 uM)”. `Cc1cc(C)c(Oc2nc(-c3cccc(OCC4CC4)c3)ccc2C(=O)NS(=O)(=O)c2ccc[nH]c2=O)c(C)c1` [Compound 1105, 6-[3-(cyclopropylmethoxy)phenyl]-N-[(2-oxo-1H-pyridin-3-yl)sulfonyl]-2-(2,4,6-trimethylphenoxy)pyridine-3-carboxamide]: the EC30 result is listed as “+ (“+” means greater than 10 uM)”. The result for `Cc1cc(C)c(Oc2nc(C)ccc2C(=O)NS(=O)(=O)c2cccc(N3CCN(C)CC3)n2)c(C)c1` [Compound 1018, 6-methyl-N-[[6-(4-methylpiperazin-1-yl)-2-pyridyl]sulfonyl]-2-(2,4,6-trimethylphenoxy)pyridine-3-carboxamide] reads “++ (“++” means between 3 uM and 10 uM)”; that for `CC(C)COc1cncc(-c2ccc(C(=O)NS(=O)(=O)c3cccc(N)n3)c(N3[C@H](C)CC[C@@H]3C)n2)c1` [Compound 1224, N-[(6-amino-2-pyridyl)sulfonyl]-2-[(2S,5R)-2,5-dimethylpyrrolidin-1-yl]-6-(5-isobutoxy-3-pyridyl)pyridine-3-carboxamide], “++ (“++” means between 3 uM and 10 uM)”.

With `Cc1ccc(-c2nc(-c3cc(F)cc(OC(C)C)c3)ccc2C(=O)NS(=O)(=O)c2nccnc2N)cc1` [Compound 1351, N-(3-aminopyrazin-2-yl)sulfonyl-6-(3-fluoro-5-isopropoxy-phenyl)-2-(p-tolyl)pyridine-3-carboxamide], the EC30 result is “++ (“++” means between 3 uM and 10 uM)”. Consider `CCc1ccc(C(=O)NS(=O)(=O)c2cccc(N)n2)c(Oc2c(C)cc(C)cc2C)n1` [Compound 963, N-[(6-amino-2-pyridyl)sulfonyl]-6-ethyl-2-(2,4,6-trimethylphenoxy)pyridine-3-carboxamide], for which the EC30 result is “++ (“++” means between 3 uM and 10 uM)”. The result for `C=C(C)c1ccc(C(=O)NS(=O)(=O)c2cccc(N)n2)c(Oc2c(C)cc(C)cc2C)n1` [Compound 1211, N-[(6-amino-2-pyridyl)sulfonyl]-6-isopropenyl-2-(2,4,6-trimethylphenoxy)pyridine-3-carboxamide] reads “++ (“++” means between 3 uM and 10 uM)”.
